Legend:
[1] = system: TNF-α; test: TNF-α production in RAW264.7 mouse macrophage cells (Example 6); format: cell-based; details: final 0.01, 0.1 and 1 ng/mL, no LPSp, FIG. 6
Method: In the same manner as “(1) Preparation of test solution” in Example 3, a solution having a concentration of the purified product of 20,000 ng/mL was prepared, and the solution was serially diluted with a culture solution having the following composition, thereby obtaining a total of three test solutions having a concentration of 2 ng/mL, 0.2 ng/mL, and 0.02 ng/mL. Since the three test solutions are diluted twice when added to the cells, the final concentrations of the purified products are 1 ng/mL, 0.1 ng/mL, and 0.01 ng/mL, respectively.
The culture medium was added to mouse macrophage cells (RAW264.7, ATCC) to prepare solutions at concentrations of 4×10^5 cells/mL. The solutions were seeded in 96-well flat-bottomed plates in 100 μL portions, i.e., 4×10^4 cells/100 μL/well. After seeding, the cells were incubated at 37° C. in 5% CO2 for 2 hours until they adhered to the bottoms of the wells and extended. Next, 100 μL of the test solution was added to each well. After adding the test solution, the cells were incubated at 37° C. in a 5% CO2 for 24 hours. After the incubation, the culture supernatant of the wells was removed, 150 μl of the above-mentioned culture solution was newly added (hereinafter, this step is referred to as a “culture solution adding step”), and the wells were incubated at 37° C. in a 5% CO2 for 24 hours.
After incubation, 50 μl of culture supernatant from each well was collected, transferred to each well of new 96-well flat-bottom plates, and absorbance was measured using mouse TNF a assay kit (manufactured by Biolegend) and converted to TNF-α concentrations.

[2] = system: PPARγ gene; test: PPARγ gene expression in THP-1 cells by CAGE method (Example 8-2); format: cell-based, human; details: 3 hours
Method: The same culture medium as in Example 8-1(2) was added to the THP-1 cells to prepare solutions in which the concentrations of the cells were 5×10^5 cells/mL. The expression level of the PPARγ gene in this solution was measured by the CAGE method and found to be 3.97 TPM (Tags Per Million). After the measurement, the cell solution was divided into the following four groups. That is, there are four groups: a group in which a solution of the purified product is added to the cell solution so as to have a final concentration of 1 μg/mL (Example 8-2A), a group in which a solution of the purified product is added to the cell solution so as to have a final concentration of 10 μg/mL (Example 8-2B), a group in which nothing is added to the cell solution (Comparative Example 8-2A), and a group in which a LPSp solution is added to the cell solution so as to have a final concentration of 100 ng/mL (Comparative Example 8-2B). After culturing the four groups for 3 hours, the expression level of the PPARγ gene was measured by the CAGE method. FIG. 27 is a graph showing the expression levels of the PPARγ genes. In FIG. 27, the horizontal axis represents the incubation time, and the vertical axis represents the expression amount (TPM) of the PPARγ gene. […] In contrast, in Comparative Example 8-2A, the expression level of the PPARγ gene decreased slightly from 3.97 TPM to 3.89 TPM during 3 hours, and in Comparative Example 8-2B, the expression level of the PPARγ gene increased from 3.97 TPM to 4.31 TPM during 3 hours, but the degree of the increase was not significant.

[3] = biological target: T1, human TLR4 (Homo sapiens, UniProt O00206+Q9Y6Y9); test: IL-8 production in Human Embryonic Kidney cells transfected with human TLR4 gene (Example 3); format: cell-based; details: HEK cells with human TLR4 gene; final 0.1-10,000 ng/mL; 24 hours; ELISA; FIG. 3
T1 construct: host or cells: Human Embryonic Kidney cells
Method: The purified product obtained in Example 1 (the mixture of the compound represented by Formula (A1), the compound represented by Formula (B1), the compound represented by Formula (A2), and the compound represented by Formula (B2)) was dissolved in water for injection to a concentration of 2 mg/mL and stored at 4° C., and the solution was heated at 37° C. for 5 minutes and sonicated at 37° C. for 1 minute. 10 μL of the sonicated solution was added to 990 μL of the culture solution having the following composition to thoroughly mix, and a solution having a concentration of 20,000 ng/mL was prepared, which was serially diluted using the culture solution to obtain six test solutions having concentrations of 2,000 ng/mL, 200 ng/mL, 20 ng/mL, 2 ng/mL, and 0.2 ng/mL. Since the six test solutions are diluted twice when added to the cells, the final concentrations of the purified products are 10,000 ng/mL, 1,000 ng/mL, 100 ng/mL, 10 ng/mL, 1 ng/mL, and 0.1 ng/mL, respectively.
The culture medium was added to Human Embryonic Kidney cells (manufactured by InvivoGen) into which human TLR4 gene had been transfected, and solution were prepared in which the concentration of the cell was 4×10^5 cells/mL. The solution was seeded in 96-well flat-bottomed plates in 100 μL portions, i.e., 4×10^4 cells/100 μL/well. After seeding, the culture was cultured at 37° C. in a 5% CO2 for 24 hours, then the culture supernatant was removed, and 100 μL of the above-described culture medium was added to each well. Next, 100 μL of the test solution was added to each well. After adding the test solution, the culture was incubated at 37° C. in a 5% CO2 for 24 hours.
Culture supernatants from the wells were collected and the concentrations of Interleukin-8 (IL-8) were measured using Human IL-8 ELISA MAX (registered trademark) Standard (Biolegend).

T1 sequence (O00206 24-839): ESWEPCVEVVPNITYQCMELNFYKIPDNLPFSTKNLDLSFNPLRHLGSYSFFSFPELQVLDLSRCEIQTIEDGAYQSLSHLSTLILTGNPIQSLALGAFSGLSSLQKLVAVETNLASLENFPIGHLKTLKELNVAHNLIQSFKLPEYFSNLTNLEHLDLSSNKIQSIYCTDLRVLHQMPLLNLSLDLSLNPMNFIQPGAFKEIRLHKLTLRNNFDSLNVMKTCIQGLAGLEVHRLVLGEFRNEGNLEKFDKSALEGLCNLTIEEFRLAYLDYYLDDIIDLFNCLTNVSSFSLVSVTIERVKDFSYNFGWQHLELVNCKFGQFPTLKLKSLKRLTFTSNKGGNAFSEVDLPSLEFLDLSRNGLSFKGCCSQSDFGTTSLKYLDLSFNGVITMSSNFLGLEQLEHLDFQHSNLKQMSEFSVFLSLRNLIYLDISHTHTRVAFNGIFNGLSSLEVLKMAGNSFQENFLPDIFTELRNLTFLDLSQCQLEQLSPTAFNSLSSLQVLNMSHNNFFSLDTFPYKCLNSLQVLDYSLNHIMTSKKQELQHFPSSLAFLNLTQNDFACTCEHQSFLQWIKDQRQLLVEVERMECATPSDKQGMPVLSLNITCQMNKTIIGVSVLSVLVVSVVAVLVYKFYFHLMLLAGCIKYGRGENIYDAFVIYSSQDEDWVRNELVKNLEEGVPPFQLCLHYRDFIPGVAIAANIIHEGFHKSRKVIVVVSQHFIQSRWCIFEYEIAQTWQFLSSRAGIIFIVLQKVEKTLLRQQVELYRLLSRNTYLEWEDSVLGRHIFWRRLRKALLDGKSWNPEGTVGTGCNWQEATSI
T1 sequence (Q9Y6Y9 17-160 limits assumed): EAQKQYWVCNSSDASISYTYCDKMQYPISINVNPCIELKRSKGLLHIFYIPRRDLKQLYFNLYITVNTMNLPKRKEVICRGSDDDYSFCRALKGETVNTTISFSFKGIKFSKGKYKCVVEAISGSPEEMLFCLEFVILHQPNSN

CCCCCC/C=C/CCCCCC(=O)OC(CCCCCCCCCCC)CC(=O)NC1C(OCC2OC(OP(=O)(O)O)C(NC(=O)CC(=O)CCCCCCCCCCC)C(OC(=O)CC(O)CCCCCCC)C2O)OC(COC2(C(=O)O)CC(OC3(C(=O)O)CC(O)C(OC4OC(C(=O)O)C(OC5OC(CO)C(O)C(O)C5O)C(O)C4O)C(C(O)CO)O3)C(OC3OC(CO)C(O)C(O)C3O)C(C(O)CO)O2)C(OP(=O)(O)O)C1OC(=O)CC(O)CCCCCCC (stereo not drawn) [Formula (B2)]
Equivalent results were obtained: TNF-α concentration in culture supernatant [1] | effect on expression of the PPARγ gene (in words) [2] | concentration of IL-8 in culture supernatant [3]

CCCCCC/C=C/CCCCCC(=O)OC(CCCCCCCCCCC)CC(=O)NC1C(OCC2OC(OP(=O)(O)O)C(NC(=O)CC(=O)CCCCCCCCCCC)C(OC(=O)CC(O)CCCCCCC)C2O)OC(COC2(C(=O)O)CC(OC3(C(=O)O)CC(OC4OC(C(=O)O)C(OC5OC(CO)C(O)C(O)C5O)C(O)C4O)C(O)C(C(O)CO)O3)C(OC3OC(CO)C(O)C(O)C3O)C(C(O)CO)O2)C(OP(=O)(O)O)C1OC(=O)CC(O)CCCCCCC (stereo not drawn) [Formula (A2)]
Equivalent results were obtained: TNF-α concentration in culture supernatant [1] | effect on expression of the PPARγ gene (in words) [2] | concentration of IL-8 in culture supernatant [3]

CCCCCC/C=C/CCCCCC(=O)OC(CCCCCCCCCCC)CC(=O)NC1C(OCC2OC(OP(=O)(O)O)C(NC(=O)CC(=O)CCCCCCCCCCC)C(OC(=O)CC(O)CCCCCCC)C2O)OC(COC2(C(=O)O)CC(OC3(C(=O)O)CC(OC4OC(C(=O)O)C(OC5OC(CO)C(O)C(O)C5O)C(O)C4O)C(O)C(C(O)CO)O3)C(OC3OC(COP(=O)(O)O)C(OC4OC(CO)C(O)C(O)C4O)C(O)C3O)C(C(O)CO)O2)C(OP(=O)(O)O)C1OC(=O)CC(O)CCCCCCC (stereo not drawn) [Formula (A1)]
Equivalent results were obtained: TNF-α concentration in culture supernatant [1] | effect on expression of the PPARγ gene (in words) [2] | concentration of IL-8 in culture supernatant [3]

CCCCCC/C=C/CCCCCC(=O)OC(CCCCCCCCCCC)CC(=O)NC1C(OCC2OC(OP(=O)(O)O)C(NC(=O)CC(=O)CCCCCCCCCCC)C(OC(=O)CC(O)CCCCCCC)C2O)OC(COC2(C(=O)O)CC(OC3(C(=O)O)CC(O)C(OC4OC(C(=O)O)C(OC5OC(CO)C(O)C(O)C5O)C(O)C4O)C(C(O)CO)O3)C(OC3OC(COP(=O)(O)O)C(OC4OC(CO)C(O)C(O)C4O)C(O)C3O)C(C(O)CO)O2)C(OP(=O)(O)O)C1OC(=O)CC(O)CCCCCCC (stereo not drawn) [Formula (B1)]
Equivalent results were obtained: TNF-α concentration in culture supernatant [1] | effect on expression of the PPARγ gene (in words) [2] | concentration of IL-8 in culture supernatant [3]
